Test results taken from PMC7897990, “TriTOX: A novel Trichomonas vaginalis assay platform for high-throughput screening of compound libraries” (International Journal for Parasitology: Drugs and Drug …, 2021).
Where two headings read alike, the source gives them in different places.

Assays:
[1] = system: Trichomonas vaginalis G3 trophozoites; conditions: for T.vaginalis_Absorbance_Rep1 / T.vaginalis_Absorbance_Rep2: HTS, parasite screen at 1 µg/mL; for T.vaginalis_Absorbance_Rep1: replicate 1, raw absorbance; for T.vaginalis_Absorbance_Rep2: replicate 2, raw absorbance
[2] = system: Trichomonas vaginalis G3 trophozoites; assay: microbe, parasite or virus in culture; conditions: 48 h
T. foetus = assay: Medium-throughput (MTS) confirmatory dose-response growth assay, T. foetus; assay type: cell-based, Tritrichomonas foetus; conditions: 48 h; for IC50: Tritrichomonas foetus, 96-well, 10,000 cells/mL in 50 μL, mean ± SEM, >10 = no appreciable activity at highest dose
Procedure: (§1) For microtiter plate assays, trichomonads were grown in anaerobic conditions within GasPak EZ anaerobe pouches with fresh anaerobic sachets. Working reagent of the chromogen was phenol red (Sigma) in a 1% w/v working solution in phosphate buffered saline (PBS), which was filter sterilised. Chromogen absorbance was monitored at 570 nm on an absorbance microplate reader after plates were allowed to equilibrate in atmospheric conditions at room temperature for at least 5 min.
(§2) After absorbances were measured, data were processed as followed unless indicated otherwise in the text. […] Prism 8 (GraphPad) was used to plot dose-response curves and calculate IC50 values, using a least squares regression, log[inhibitor] vs normalised response (variable slope, four parameters) model. Where replicate plates were used, data for dose-response curves were plotted as the mean±SD of these replicates.
(§3) A selection of 17 compounds assayed in the high-throughput screen (HTS) for T. vaginalis which were available through BioAustralis were obtained for validation of inhibitory in/activity in our optimised medium-throughput format. For this, a 10-point serial dilution was used for drug-susceptibility testing to calculate IC50 values of ‘hit’ compounds. Mtz was used as a positive control. Each screen was performed with 3 technical replicates and a minimum of 2 biological replicates in both T. vaginalis and T. foetus using assay conditions of seeds of 10,000 cells/mL in 50 μL, with absorbance measured at 48 h. Dose response curves and IC50 were calculated for each compound as described above in Section 2.3.

[3] = system: nontumorigenic neonatal foreskin fibroblast (NFF) cell line
T. vaginalis = assay: Medium-throughput (MTS) confirmatory dose-response growth assay, T. vaginalis; assay type: cell-based, Trichomonas vaginalis; conditions: for activity against T. vaginalis in MTS, in words: 10-point dilution series, 96-well; for activity against T. vaginalis in MTS, in words / IC50: 48 h; for IC50: Trichomonas vaginalis, 96-well, 10,000 cells/mL in 50 μL, mean ± SEM, >10 = no appreciable activity at highest dose
Procedure: as §1, §2, §3

[4] = system: Bacillus subtilis (ATCC 6633); assay type: cell-based; conditions: 5 μg/mL
[5] = system: Staphylococcus aureus (ATCC 25923); assay type: cell-based; conditions: 5 μg/mL
[6] = read-out: T.vaginalis_%inb_Rep1
[7] = read-out: T.vaginalis_%inb_Rep2

Row | Structure (SMILES) | T. vaginalis HTS result in words ([1]; 384-well, 25 μL, 10,000 cells/mL, 48 h, biological duplicates, hit = >50% inhibition) | inhibition of growth at 1 µg/mL [2, 6] [%] | inhibition of growth at 1 µg/mL [2, 7] [%] | IC50 (T. foetus) [µM] | NFF_Activity ([3]; NFF fibroblast screen at 5 µg/mL, A = active, I = inactive) | activity against T. vaginalis in MTS, in words (T. vaginalis) | IC50 (T. vaginalis) [µM] | species-specificity T. vaginalis vs T. foetus in MTS (T. vaginalis; comparison of MTS IC50 in both species) | T.vaginalis_Absorbance_Rep1 [1] | T.vaginalis_Absorbance_Rep2 [1] | NFF_Activity ([3]; NFF_NS1 screen at 5 µg/mL) | antibacterial activity against Bacillus subtilis [4] | activity against T. foetus in MTS, in words (T. foetus; 10-point dilution series, 96-well) | cytotoxic activity (NFF) [3] | activity against T. vaginalis in MTS, in words (T. vaginalis; listed as fumagillin) | antibacterial activity against Staphylococcus aureus [5]
1 | N#Cc1cn([C@@H]2O[C@H](CO)[C@@H](O)[C@H]2O)c2ncnc(N)c12 [Toyocamycin, toyocamycin, reference compound] | supported the anti-trichomonal activity | 69.9 | 77.5 | 2.4 ± 0.7 | I (otherwise these were reported as inactive (I)) | true positives | 0.3 ± 0.01 | remained active against both T. vaginalis and T. foetus | – | – | – | – | – | – | – | –
2 | CN1C(=O)[C@]23CC4=CC=C[C@H](O)[C@H]4N2C(=O)[C@@]1(CO)SS3 [Gliotoxin, gliotoxin, reference compound] | – | 71 | 78.7 | > 10 | – | no activity | > 10 | – | 2.103 | 1.862 | A (active (A) compounds having >25% inhibitory activity) | – | – | – | – | –
3 | CO[C@@H]1[C@H](OC(=O)/C=C/C=C/C=C/C=C/C(=O)O)CC[C@]2(CO2)[C@H]1[C@@]1(C)O[C@@H]1CC=C(C)C [Fumagillin, fumagillin, reference compound] | – | 48.9 | 45.5 | 0.18 ± 0.03 | – | near nanomolar potency | 0.26 ± 0.11 | – | 1.617 | 1.25 | – | no anti-bacterial | near nanomolar potency | no anti-bacterial nor cytotoxic activity | true positives | no anti-bacterial
